Data taken from paper PMC2755569 (The Pediatric Infectious Disease Journal, 2009).

Key:
[1] = human, in vivo
[2] = range = 0.5- to 2.0-fold of target value; cited from earlier work
[3] = Steady-state plasma pharmacokinetics of LPV/RTV plus EFV, protocol P1058
[4] = 15 South African children, median dose 352 mg/m^2 equivalent to 14 mg/kg; cited from earlier work
[5] = children dosed according to body weight-adjusted dose recommendations; cited from earlier work
clinical = conditions: human, in vivo
[6] = median (range), steady state, LPV/RTV 300 mg/m^2 b.i.d. + EFV 350 mg/m^2 q.d., 15 patients

| AUC lower compared with pediatric and adult patients [1] | Cmin lower compared with pediatric and adult patients ([1]; 24 h) | AUC ([3]; human, plasma, oral, 350 mg/m2, AUC24, GM (90% CI), geometric mean (90% CI), EFV 350 mg/m^2 q.d. with LPV/RTV) | concentration at 24 h ([3]; human, plasma, oral, EstC24 hours, GM (90% CI), geometric mean (90% CI), EFV 350 mg/m^2 q.d. with LPV/RTV) | AUC (clinical; 300 mg/m2, AUC (AUC12), GM (90% CI)) | AUC (clinical; 300 mg/m2, AUCτ (AUC12)) | Structure (SMILES) | Target GM (range) AUC24 [2] | Target GM (range) C24 hours [2] | CL (CL/F) [3, 6] | Patients with estimated Cmin <1 mg/L [4] | Patients with plasma concentrations below the targeted range [5] | Target GM (range) AUC12 [2] | concentration at 12 h ([3]; human, plasma, oral, Cmin (C12 h), median (range), LPV/RTV 300 mg/m^2 b.i.d. with EFV, 15 patients) | Tmax ([3]; median (range), steady state, LPV/RTV 300 mg/m^2 b.i.d. + EFV 350 mg/m^2 q.d., 15 patients, plasma) |
| --- | --- | --- | --- | --- | --- | --- | --- | --- | --- | --- | --- | --- | --- | --- |
| 30% | 60% | 44100 ng·h/mL | 800 ng/mL |  |  | O=C1Nc2ccc(Cl)cc2[C@@](C#CC2CC2)(C(F)(F)F)O1 [EFV, efavirenz] | 64 (32–124) mg × h/L | 1.8 (0.9 –3.6) mg/L | 8.5 (2.3–22.9) L/h | 40% | 64% |  |  |  |
|  |  |  |  | 91300 ng·h/mL | 100000 ng·h/mL | Cc1cccc(C)c1OCC(=O)N[C@@H](Cc1ccccc1)[C@@H](O)C[C@H](Cc1ccccc1)NC(=O)[C@H](C(C)C)N1CCCNC1=O [LPV, lopinavir] |  |  |  |  |  | 80 (40 –160) mg × h/L |  |  |
|  |  |  |  |  |  | CC(C)c1nc(CN(C)C(=O)N[C@H](C(=O)N[C@@H](Cc2ccccc2)C[C@H](O)[C@H](Cc2ccccc2)NC(=O)OCc2cncs2)C(C)C)cs1 [RTV, ritonavir] |  |  | 11.8 (2.0–264.8) L/h |  |  |  | 300 ng/mL | 3.0 (1.0–8.1) hr |
